# In patent US9814659B2, “Methods of lightening the skin” (Johnson & Johnson Consumer Inc., priority 2012, dated 2017):
# Tested on: MatTek's MelanoDerm skin epidermal equivalent tissues (MEL-300-B; NHEK and NHM)
# Experiment: Skin Epidermal Equivalents Model as a Skin Lightening Test (ΔL)
# Assay type: cell-based, human
# From the text: Skin Epidermal Equivalents Model as a Skin Lightening Test (ΔL)
# Skin epidermal equivalent tissues are available commercially from MatTek's MelanoDerm™ System and were used for the following tests. MatTek's MelanoDerm™ System consists of normal, human-derived epidermal keratinocytes (NHEK) and melanocytes (NHM) which have been cultured to form a multilayered, highly differentiated model of the human epidermis. Specifically, MEL-300-B tissues, each 9 mm in diameter were used in the following tests.
# The test materials prepared in an appropriate vehicle and tested concentrations were applied topically to the skin model daily and the experiment lasted for 8 days. Measurement was taken on day 9.
# The macroscopic and microscopic visual tissue darkening end points were measured by taking pictures with a digital camera. The Degree of Lightness for each tissue (L-Value) was measured using a spectrophotometer (Konica Minolta CM-2600d). The ΔL (degree of lightness as compared to control) for each test sample is calculated as per following formula: ΔL=L-value of treated sample−L-value of control sample.
smiles,measurement,setting,value
"CC(C)=CCCC(C)=CCCC(C)=CCOc1ccc(CCC(=O)O)cc1 [M-1, 3-(4-Farnesyloxyphenyl)propionic acid]",Skin Lightening (ΔL Value),"concentration 0.5%, topical daily for 8 days, measured day 9",1.2
same,Skin lightening efficacy compared with first extract E1,same concentration (0.5%) as E1,equal to first extract E1
